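Five compound concentrations were applied to cells in 96-well plates for 48 hours; endpoints were derived by simple linear interpolation of the resulting dose-response curve. GI50 marks 50% less growth.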 The source made the active and inactive calls. Cut-off read from the data, not from the text of the source: active = GI50 up to about 1.1 µM and inactive = higher.
How the values were obtained:
Test in all cases: NCI-60 cell line screen, 48 h
ACHN = tested on: ACHN
CCRF-CEM = tested on: CCRF-CEM
DLD-1 = tested on: DLD-1
DMS-114 = tested on: DMS-114
DMS-273 = tested on: DMS-273
HCC 2998 = tested on: HCC 2998
HCT-15 = tested on: HCT-15
KM-20L2 = tested on: KM-20L2
M14 = tested on: M14
M19-MEL = tested on: M19-MEL
OVCAR-3 = tested on: OVCAR-3
TK-10 = tested on: TK-10
UACC-62 = tested on: UACC-62
A498 = tested on: A498
MDA-MB-435 = tested on: MDA-MB-435
NCI/ADR-RES = tested on: NCI/ADR-RES
PC-3 = tested on: PC-3
RPMI-8226 = tested on: RPMI-8226
RXF 393 = tested on: RXF 393
T47D = tested on: T47D

SMILES	GI50 (ACHN)	GI50 (CCRF-CEM)	GI50 (DLD-1)	GI50 (DMS-114)	GI50 (DMS-273)	GI50 (HCC 2998)	GI50 (HCT-15) [µM]	GI50 (KM-20L2)	GI50 (M14)	GI50 (M19-MEL)	GI50 (OVCAR-3)	GI50 (TK-10)	GI50 (UACC-62)	GI50 (A498)	GI50 (MDA-MB-435)	GI50 (NCI/ADR-RES)	GI50 (PC-3)	GI50 (RPMI-8226)	GI50 (RXF 393)	GI50 (T47D)
c1ccc(CCn2cncn2)cc1	> 100 µM (inactive)	> 100 µM (inactive)	> 100 µM (inactive)	> 100 µM (inactive)	> 100 µM (inactive)	> 100 µM (inactive)	> 100	> 100 µM (inactive)	> 100 µM (inactive)	> 100 µM (inactive)	> 100 µM (inactive)	> 100 µM (inactive)	> 100 µM (inactive)							
O=C1N/C(=N/N=C/c2c[nH]c3ccccc23)N/C1=C\c1cccs1	> 100 µM (inactive)	4.44 µM (inactive)					> 100		75.3 µM (inactive)		30.7 µM (inactive)	> 100 µM (inactive)	73.3 µM (inactive)	16.2 µM (inactive)	43.3 µM (inactive)	55.3 µM (inactive)	16.1 µM (inactive)	40.4 µM (inactive)	75.3 µM (inactive)	> 100 µM (inactive)
CNS(=O)(=O)NN(C)S(=O)(=O)c1ccc(F)cc1	> 100 µM (inactive)	> 100 µM (inactive)	> 100 µM (inactive)	> 100 µM (inactive)	> 100 µM (inactive)	> 100 µM (inactive)	> 100	> 100 µM (inactive)	> 100 µM (inactive)		> 100 µM (inactive)	> 100 µM (inactive)	> 100 µM (inactive)	> 100 µM (inactive)				> 100 µM (inactive)	> 100 µM (inactive)	
CCSc1nc(N/N=C/c2cccs2)c2cnn(CO)c2n1	6.07 µM (inactive)						4.88		6.11 µM (inactive)		5.86 µM (inactive)	6.14 µM (inactive)	10.4 µM (inactive)	2.18 µM (inactive)	6.25 µM (inactive)	3.91 µM (inactive)	6.58 µM (inactive)		3.66 µM (inactive)	3.8 µM (inactive)
COc1cc2c(cc1OC)-c1cc3ccccc3c[n+]1CC2	> 100 µM (inactive)	> 100 µM (inactive)				> 100 µM (inactive)			> 100 µM (inactive)		51.5 µM (inactive)	> 100 µM (inactive)	> 100 µM (inactive)		> 100 µM (inactive)	> 100 µM (inactive)	> 100 µM (inactive)	36.6 µM (inactive)	> 100 µM (inactive)	42.6 µM (inactive)
CCOC(=O)/C=C(\C)c1ccc(Cl)cc1	> 100 µM (inactive)	> 100 µM (inactive)	> 100 µM (inactive)	> 100 µM (inactive)	> 100 µM (inactive)	> 100 µM (inactive)	> 100	> 100 µM (inactive)	> 100 µM (inactive)			> 100 µM (inactive)		> 100 µM (inactive)				> 100 µM (inactive)	> 100 µM (inactive)	
O=C(Nc1cccc(O)c1)C(=O)C(C(=O)c1ccccc1F)C1OC(=O)c2ccccc21 (stereo unspecified)	37.7 µM (inactive)	18.3 µM (inactive)	34.2 µM (inactive)	13.8 µM (inactive)	24.2 µM (inactive)	22.2 µM (inactive)	18.3	25.7 µM (inactive)	23.5 µM (inactive)	18.1 µM (inactive)		58.9 µM (inactive)	16.9 µM (inactive)	66.5 µM (inactive)				23.4 µM (inactive)	18.5 µM (inactive)	
Nc1ccc(Sc2nnc(N)s2)cc1	> 100 µM (inactive)	> 100 µM (inactive)				> 100 µM (inactive)	> 100		> 100 µM (inactive)			> 100 µM (inactive)			> 100 µM (inactive)	> 100 µM (inactive)	> 100 µM (inactive)	> 100 µM (inactive)		> 100 µM (inactive)
CC1=NC=C(O)c2ccccc2O1	> 100 µM (inactive)	> 100 µM (inactive)	> 100 µM (inactive)	> 100 µM (inactive)	> 100 µM (inactive)	> 100 µM (inactive)	> 100	> 100 µM (inactive)	> 100 µM (inactive)	> 100 µM (inactive)	> 100 µM (inactive)	> 100 µM (inactive)	> 100 µM (inactive)	> 100 µM (inactive)				> 100 µM (inactive)	> 100 µM (inactive)	
CCN(CC)/[N+]([O-])=N/OC	> 100 µM (inactive)	> 100 µM (inactive)			> 100 µM (inactive)	> 100 µM (inactive)	> 100	> 100 µM (inactive)	> 100 µM (inactive)	> 100 µM (inactive)	> 100 µM (inactive)	> 100 µM (inactive)	> 100 µM (inactive)	> 100 µM (inactive)					> 100 µM (inactive)	
CN(CCCNc1ccc2ncn3c4ccccc4c(=O)c1c23)CCCN1C(=O)c2cccc3cc([N+](=O)[O-])cc(c23)C1=O	0.0012 µM (active)	0.0614 µM (active)				0.0115 µM (active)	0.0153		0.0481 µM (active)		1.1 µM (active)	0.00221 µM (active)		1.4 µM (inactive)	0.0219 µM (active)	0.0376 µM (active)	1.14 µM (inactive)	0.0132 µM (active)	0.0267 µM (active)	1.18 µM (inactive)
COC(=O)C1=C(C(=O)OC)C2(C)C=CC1O2 (stereo unspecified)	5.78 µM (inactive)					16.2 µM (inactive)	16		17.3 µM (inactive)		0.55 µM (active)	2.49 µM (inactive)	17.6 µM (inactive)	23.7 µM (inactive)	19.1 µM (inactive)	19.6 µM (inactive)	21.4 µM (inactive)	1.91 µM (inactive)	20.9 µM (inactive)	3.44 µM (inactive)
CNC1=C(C)C(=O)C2=C(C1=O)C(COC(N)=O)C1(OC)C3NC3CN21 (stereo unspecified)	0.16 µM (active)	4.19 µM (inactive)				0.313 µM (active)	0.391		0.22 µM (active)		3.36 µM (inactive)	3.1 µM (inactive)	0.221 µM (active)	0.632 µM (active)	1.6 µM (inactive)		2.94 µM (inactive)	3.13 µM (inactive)		1.5 µM (inactive)
Oc1ccc2ccccc2c1/N=N/c1cccc2ccccc12	> 100 µM (inactive)	> 100 µM (inactive)				> 100 µM (inactive)	> 100		> 100 µM (inactive)		> 100 µM (inactive)	> 100 µM (inactive)	> 100 µM (inactive)	> 100 µM (inactive)	> 100 µM (inactive)	> 100 µM (inactive)	> 100 µM (inactive)		65.3 µM (inactive)	> 100 µM (inactive)
O=C1Sc2ccccc2/C1=N/Nc1ccccc1[N+](=O)[O-]	93.1 µM (inactive)	> 100 µM (inactive)				> 100 µM (inactive)	> 100		> 100 µM (inactive)		> 100 µM (inactive)	> 100 µM (inactive)	> 100 µM (inactive)	> 100 µM (inactive)	> 100 µM (inactive)		> 100 µM (inactive)	> 100 µM (inactive)		10.2 µM (inactive)
O=C1C(=O)c2ccccc2C=C1[N+](=O)[O-]	> 100 µM (inactive)	27.9 µM (inactive)				80.9 µM (inactive)	32.7		71.1 µM (inactive)		23.4 µM (inactive)	> 100 µM (inactive)	27.7 µM (inactive)	> 100 µM (inactive)	16.8 µM (inactive)	23 µM (inactive)	48.2 µM (inactive)	31 µM (inactive)	24.4 µM (inactive)	32.8 µM (inactive)
C=C1C[C@@H]2C[C@@H](C)CC(O)[C@]2(CCCN)C1O (stereo partly specified)	> 100 µM (inactive)	> 100 µM (inactive)	> 100 µM (inactive)	> 100 µM (inactive)	> 100 µM (inactive)	> 100 µM (inactive)		> 100 µM (inactive)	> 100 µM (inactive)	> 100 µM (inactive)	> 100 µM (inactive)	> 100 µM (inactive)	> 100 µM (inactive)	> 100 µM (inactive)				> 100 µM (inactive)	> 100 µM (inactive)	
O=C1CNc2cc(N3CCCCC3)ccc2N1	> 100 µM (inactive)	99.5 µM (inactive)				> 100 µM (inactive)	> 100		66.1 µM (inactive)		> 100 µM (inactive)	> 100 µM (inactive)	25.4 µM (inactive)		60.4 µM (inactive)	> 100 µM (inactive)	> 100 µM (inactive)	> 100 µM (inactive)		> 100 µM (inactive)
COc1cc(O)cc(/C=C/c2ccc(O)cc2)c1	6.31 µM (inactive)						10.1		24.3 µM (inactive)		41.3 µM (inactive)	29.4 µM (inactive)	20.7 µM (inactive)	33.1 µM (inactive)	31.3 µM (inactive)	38.9 µM (inactive)	18 µM (inactive)	4.07 µM (inactive)	72.8 µM (inactive)	44.7 µM (inactive)
COc1cc(O)c2c(c1)C(=O)c1cc(C)cc(O)c1C2=O [PHYSCION]	> 100 µM (inactive)	> 100 µM (inactive)	> 100 µM (inactive)	> 100 µM (inactive)		> 100 µM (inactive)		> 100 µM (inactive)	> 100 µM (inactive)	> 100 µM (inactive)	> 100 µM (inactive)		> 100 µM (inactive)	> 100 µM (inactive)				> 100 µM (inactive)		

— ChEMBL document CHEMBL1201862, “PubChem BioAssay data set” (2004)
